Where two headings read alike, the source gives them in different places.
Key:
mGluR4 = mGluR4 (UniProt Q14833); test: mGluR4 potentiation assay (Ca2+ or thallium flux fluorescence, agonist EC20); assay type: cell-based, human or rat
Experimental: The disclosed compounds and compositions can be evaluated for their ability to act as a potentiator of metabotropic glutamate receptor activity, in particular mGluR4 activity, by any suitable known methodology known in the art. For example, Chinese Hamster Ovary (CHO) cells transfected with human mGluR4 or HEK cells co-transfected with rat mGluR4 and the G-protein regulated Inwardly Rectifying Potassium channel (GIRK) were plated in clear bottom assay plates for assay in a Hamamatsu FDSS Fluorometric Plate Reader. The cells were loaded with either a Ca2+-sensitive fluorescent dye or the thallium responsive dye and the plates were washed and placed into a suitable kinetic plate reader. For human mGluR4 assays, a fluorescence baseline was established for 3-5 seconds, the disclosed compounds were then added to the cells, and the response in cells was measured. Approximately two and a half minutes later, a concentration of mGluR4 orthosteric agonist (e.g. glutamate or L-AP4) eliciting approximately 20% (EC20) of the maximal agonist response was added to the cells, and the response was measured. Two minutes later, a concentration of mGluR4 agonist (e.g. glutamate or L-AP4) eliciting 80% (EC80) of the maximal agonist response was added to the cells, and the response was measured. For rat mGluR4/GIRK experiments, a baseline was established for approximately five seconds, disclosed compounds were added, and either an EC20 or EC80 concentration of agonist was added approximately two and one half minutes later.
The above described assay operated in two modes. In the first mode, a range of concentrations of the disclosed compounds are added to cells, followed by a single fixed concentration of agonist. If the compound acts as a potentiator, an EC50 value for potentiation and a maximum extent of potentiation by the compound at this concentration of agonist is determined by non-linear curve fitting. If the compound acts as a noncompetitive antagonist, an IC50 value is determined by non-linear curve fitting. In the second mode, several fixed concentrations of the disclosed compounds are added to various wells on a plate, followed by a range in concentrations of agonist for each concentration of disclosed compound. The EC50 values for the agonist at each concentration of compound are determined by non-linear curve fitting. A decrease in the EC50 value of the agonist with increasing concentrations of the sample compound (a leftward shift of the agonist concentration-response curve) is an indication of the degree of mGluR4 potentiation at a given concentration of the sample compound. A decrease in the maximal response of the agonist with increasing concentrations of the sample compounds, with or without a rightward shift in agonist potency, is an indication of the degree of noncompetitive antagonism at mGluR4. The second mode also indicates whether the sample compounds also affect the maximum response to mGluR4 to agonists.

mGluR5 = molecular target: T1, mGluR5 (Rattus norvegicus, UniProt P31424); test: mGluR5 negative allosteric modulation, decrease in response to non-maximal glutamate in HEK cells; assay type: cell-based; conditions: Table 3; read-out: mGlu5 IC50
T1 construct: expressed in transfected cells; host or cells: human embryonic kidney (HEK) cells
Source text: Embodiments of the present invention are also mGluR5 negative allosteric modulators. Accordingly, in one aspect, the invention relates to compounds that are also useful as negative allosteric modulators of the metabotropic glutamate receptor subtype 5 (mGluR5). Negative allosteric modulators are non-competitive antagonists and can include a range of maximal antagonist activity from partial antagonists to inverse agonists. In one aspect, the present invention relates to compounds that allosterically modulate mGluR5 receptor activity, affecting the sensitivity of mGluR5 receptors to agonists without acting as orthosteric agonists themselves. […] The compounds of the invention can be useful in the treatment neurological and psychiatric disorders associated with glutamate dysfunction and other diseases in which metabotropic glutamate receptors are involved, as further described herein. […] In further aspect, the human embryonic kidney cells are transfected with human mGluR5. In yet a further aspect, human embryonic kidney cells are transfected with mGluR5 of a mammal.
In further aspect, the human embryonic kidney cells are transfected with human mGluR5. In yet a further aspect, human embryonic kidney cells are transfected with mGluR5 of a mammal.

[1] = Table 2, potentiation of mGluR4 agonist response, read-out: EC50

T1 sequence (P31424 21-1203): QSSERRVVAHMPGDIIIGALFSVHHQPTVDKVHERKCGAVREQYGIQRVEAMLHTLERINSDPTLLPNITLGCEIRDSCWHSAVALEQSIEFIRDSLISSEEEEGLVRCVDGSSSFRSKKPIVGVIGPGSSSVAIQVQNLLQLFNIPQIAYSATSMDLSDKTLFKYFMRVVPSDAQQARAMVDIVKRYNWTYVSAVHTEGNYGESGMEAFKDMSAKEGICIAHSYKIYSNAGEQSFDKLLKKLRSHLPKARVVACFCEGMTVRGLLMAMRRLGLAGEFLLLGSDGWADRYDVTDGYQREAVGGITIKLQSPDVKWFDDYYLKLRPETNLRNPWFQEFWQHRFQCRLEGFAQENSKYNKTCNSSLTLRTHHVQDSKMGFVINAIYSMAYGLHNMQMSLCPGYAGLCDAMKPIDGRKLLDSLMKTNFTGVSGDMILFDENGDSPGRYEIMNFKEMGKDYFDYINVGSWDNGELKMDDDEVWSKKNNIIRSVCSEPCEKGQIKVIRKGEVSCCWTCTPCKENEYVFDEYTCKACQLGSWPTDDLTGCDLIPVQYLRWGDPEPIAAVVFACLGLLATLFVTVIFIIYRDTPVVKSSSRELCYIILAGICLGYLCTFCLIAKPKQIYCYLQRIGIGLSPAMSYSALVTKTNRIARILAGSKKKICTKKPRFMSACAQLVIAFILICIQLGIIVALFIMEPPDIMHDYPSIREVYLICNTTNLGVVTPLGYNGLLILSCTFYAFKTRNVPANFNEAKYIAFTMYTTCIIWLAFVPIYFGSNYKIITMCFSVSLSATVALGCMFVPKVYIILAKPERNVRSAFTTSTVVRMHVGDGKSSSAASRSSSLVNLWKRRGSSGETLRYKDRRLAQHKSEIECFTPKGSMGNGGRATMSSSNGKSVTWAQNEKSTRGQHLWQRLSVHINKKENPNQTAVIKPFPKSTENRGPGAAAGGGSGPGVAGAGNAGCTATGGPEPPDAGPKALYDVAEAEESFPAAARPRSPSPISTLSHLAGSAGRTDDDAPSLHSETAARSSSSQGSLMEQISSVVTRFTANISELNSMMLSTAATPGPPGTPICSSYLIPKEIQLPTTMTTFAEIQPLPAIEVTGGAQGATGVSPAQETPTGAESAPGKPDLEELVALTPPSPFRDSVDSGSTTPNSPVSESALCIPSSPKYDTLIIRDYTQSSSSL

SMILES	EC50 (mGluR4; [1])	IC50 (mGluR5)	EC50 (mGluR4; Table 3, read-out: mGlu4 EC50)
FC(F)(F)c1ccnc(Oc2ccc(Nc3n[nH]c4cccnc34)cc2Cl)c1 [Example 97, N-(3-chloro-4-((4-(trifluoromethyl)pyridin-2-yl)oxy)phenyl)-1H-pyrazolo[4,3-b]pyridin-3-amine]	497 nM	–	–
Fc1cccnc1Oc1ccc(Nc2n[nH]c3cccnc23)cc1Cl [Example 98, N-(3-chloro-4-((3-fluoropyridin-2-yl)oxy)phenyl)-1H-pyrazolo[4,3-b]pyridin-3-amine]	635 nM	–	–
Fc1ccccc1COc1ccc(Nc2n[nH]c3cccnc23)cc1Cl [Example 99]	180 nM	–	–
CC(Oc1ccc(Nc2n[nH]c3cccnc23)cc1Cl)c1ccccc1 (centres unmarked) [Example 100, N-(3-chloro-4-(1-phenylethoxy)phenyl)-1H-pyrazolo[4,3-b]pyridin-3-amine]	1600 nM	–	–
Clc1cc(Nc2n[nH]c3cccnc23)ccc1OCc1ccncc1 [Example 101, N-(3-chloro-4-(pyridin-4-ylmethoxy)phenyl)-1H-pyrazolo[4,3-b]pyridin-3-amine]	270 nM	–	–
Clc1cc(Nc2n[nH]c3cccnc23)ccc1OCc1cccnc1 [Example 102, N-(3-chloro-4-(pyridin-3-ylmethoxy)phenyl)-1H-pyrazolo[4,3-b]pyridin-3-amine]	400 nM	–	–
Clc1cc(Nc2n[nH]c3cccnc23)ccc1OCc1nccs1 [Example 103, N-(3-chloro-4-(thiazol-2-ylmethoxy)phenyl)-1H-pyrazolo[4,3-b]pyridin-3-amine]	360 nM	–	–
Clc1ccccc1COc1ccc(Nc2n[nH]c3cccnc23)cc1Cl [Example 104]	1500 nM	–	–
Clc1cc(Nc2n[nH]c3cccnc23)ccc1OCC1CCCC1 [Example 105, N-(3-chloro-4-(cyclopentylmethoxy)phenyl)-1H-pyrazolo[4,3-b]pyridin-3-amine]	400 nM	–	–
Clc1cc(Nc2n[nH]c3cccnc23)ccc1OC1CCCCC1 [Example 106, N-(3-chloro-4-(cyclohexyloxy)phenyl)-1H-pyrazolo[4,3-b]pyridin-3-amine]	470 nM	–	–
C[C@H](Oc1ccc(Nc2n[nH]c3cccnc23)cc1Cl)c1ccccn1 [Example 107, (S)-N-(3-chloro-4-(1-(pyridin-2-yl)ethoxy)phenyl)-1H-pyrazolo[4,3-b]pyridin-3-amine]	610 nM	–	–
Clc1cc(Nc2n[nH]c3cccnc23)ccc1OCc1ncccn1 [Example 108, N-(3-chloro-4-(pyrimidin-2-ylmethoxy)phenyl)-1H-pyrazolo[4,3-b]pyridin-3-amine]	1190 nM	–	–
Clc1cc(Nc2n[nH]c3cccnc23)ccc1OC1CCCc2cccnc21 (centres unmarked) [Example 109, N-(3-chloro-4-((5,6,7,8-tetrahydroquinolin-8-yl)oxy)phenyl)-1H-pyrazolo[4,3-b]pyridin-3-amine]	1000 nM	–	–
C[C@H](Oc1ccc(Nc2n[nH]c3cccnc23)cc1Cl)c1ccncc1 [Example 110, (S)-N-(3-chloro-4-(1-(pyridin-4-yl)ethoxy)phenyl)-1H-pyrazolo[4,3-b]pyridin-3-amine]	1230 nM	–	–
N#Cc1cncc(Oc2ccc(Nc3n[nH]c4cccnc34)cc2Cl)c1 [Example 111, 5-(4-((1H-pyrazolo[4,3-b]pyridin-3-yl)amino)-2-chlorophenoxy)nicotinonitrile]	84.8 nM	–	–
Fc1cncc(Oc2ccc(Nc3n[nH]c4cccnc34)cc2Cl)c1 [Example 112, N-(3-chloro-4-((5-fluoropyridin-3-yl)oxy)phenyl)-1H-pyrazolo[4,3-b]pyridin-3-amine]	611 nM	–	–

SMILES	EC50 (mGluR4; [1])	IC50 (mGluR5)	EC50 (mGluR4; Table 3, read-out: mGlu4 EC50)
Cc1cc(Nc2n[nH]c3cccnc23)ccc1Oc1ncccn1 [Example 113, N-(3-methyl-4-(pyrimidin-2-yloxy)phenyl)-1H-pyrazolo[4,3-b]pyridin-3-amine]	265 nM	–	–
Clc1cc(Nc2n[nH]c3cccnc23)ccc1Nc1ccccn1 [Example 114, 2-chloro-N4-(1H-pyrazolo[4,3-b]pyridin-3-yl)-N1-(pyridin-2-yl)benzene-1,4-diamine]	–	582 nM	33.5 nM
Clc1cc(Nc2n[nH]c3cccnc23)ccc1Nc1cc2ccccc2cn1 [Example 115, 2-chloro-N1-(isoquinolin-3-yl)-N4-(1H-pyrazolo[4,3-b]pyridin-3-yl)benzene-1,4-diamine]	–	–	37.2 nM
Clc1cccc(Nc2ccc(Nc3n[nH]c4cccnc34)cc2Cl)n1 [Example 116, 2-chloro-N1-(6-chloropyridin-2-yl)-N4-(1H-pyrazolo[4,3-b]pyridin-3-yl)benzene-1,4-diamine]	–	2430 nM	82.5 nM
Clc1cc(Nc2n[nH]c3cccnc23)ccc1Nc1cnccn1 [Example 117, 2-chloro-N1-(pyrazin-2-yl)-N4-(1H-pyrazolo[4,3-b]pyridin-3-yl)benzene-1,4-diamine]	–	100 nM	30.6 nM
Clc1cc(Nc2n[nH]c3cccnc23)ccc1Nc1ncccn1 [Example 118, 2-chloro-N4-(1H-pyrazolo[4,3-b]pyridin-3-yl)-N1-(pyrimidin-2-yl)benzene-1,4-diamine]	–	3600 nM	43.9 nM
Cc1ccc(Nc2ccc(Nc3n[nH]c4cccnc34)cc2Cl)nc1 [Example 119, 2-chloro-N1-(5-methylpyridin-2-yl)-N4-(1H-pyrazolo[4,3-b]pyridin-3-yl)benzene-1,4-diamine]	–	590 nM	16.9 nM
Cc1cccc(Nc2ccc(Nc3n[nH]c4cccnc34)cc2Cl)n1 [Example 120, 2-chloro-N1-(6-methylpyridin-2-yl)-N4-(1H-pyrazolo[4,3-b]pyridin-3-yl)benzene-1,4-diamine]	–	550 nM	31.5 nM
FC(F)(F)c1ccnc(Nc2ccc(Nc3n[nH]c4cccnc34)cc2Cl)c1 [Example 121, 2-chloro-N4-(1H-pyrazolo[4,3-b]pyridin-3-yl)-N1-(4-(trifluoromethyl)pyridin-2-yl)benzene-1,4-diamine]	–	–	56.9 nM
Clc1cc(Nc2n[nH]c3cccnc23)ccc1Nc1cnc2ccccc2c1 [Example 122, 2-chloro-N4-(1H-pyrazolo[4,3-b]pyridin-3-yl)-N1-(quinolin-3-yl)benzene-1,4-diamine]	–	–	162 nM
COc1ccnc(Nc2ccc(Nc3n[nH]c4cccnc34)cc2Cl)n1 [Example 123, 2-chloro-N1-(4-methoxypyrimidin-2-yl)-N4-(1H-pyrazolo[4,3-b]pyridin-3-yl)benzene-1,4-diamine]	–	670 nM	25.5 nM
FC(F)(F)c1cccnc1Nc1ccc(Nc2n[nH]c3cccnc23)cc1Cl [Example 124, 2-chloro-N4-(1H-pyrazolo[4,3-b]pyridin-3-yl)-N1-(3-(trifluoromethyl)pyridin-2-yl)benzene-1,4-diamine]	–	1540 nM	1560 nM
Clc1cc(Nc2n[nH]c3cccnc23)ccc1Nc1ncc2ccccc2n1 [Example 125, 2-chloro-N4-(1H-pyrazolo[4,3-b]pyridin-3-yl)-N1-(quinazolin-2-yl)benzene-1,4-diamine]	–	–	21.6 nM
Clc1cc(Nc2n[nH]c3cccnc23)ccc1Nc1cnc2ccccc2n1 [Example 126, 2-chloro-N4-(1H-pyrazolo[4,3-b]pyridin-3-yl)-N1-(quinoxalin-2-yl)benzene-1,4-diamine]	–	3700 nM	38 nM
Clc1cc(Nc2n[nH]c3cccnc23)ccc1Nc1nccc2cccnc12 [Example 128, 2-chloro-N1-(1,7-naphthyridin-8-yl)-N4-(1H-pyrazolo[4,3-b]pyridin-3-yl)benzene-1,4-diamine]	–	–	455 nM
Cc1cc(Nc2n[nH]c3cccnc23)ccc1Nc1ncccn1 [Example 130, 2-methyl-N4-(1H-pyrazolo[4,3-b]pyridin-3-yl)-N1-(pyrimidin-2-yl)benzene-1,4-diamine]	–	–	235 nM
